Where a name gives a salt, the structure may show the parent alone. ± gives the standard deviation of the averaged measurements.
Test system: HeLa
Experiment: cell viability (CellTiter-Glo) relative to median of lowest-dilution wells of all drugs (fraction); higher = more viable cells
Protocol: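 HeLa control and CRISPR DDX11 knockout cells were seeded in 384-well plates and incubated for 72 h with each of 64 […] drugs at six concentrations. Viability was read with CellTiter-Glo and normalised to the median of the lowest (6th) dilution wells of all drugs. Two biological replicates (BR1, BR2) are averaged; the concentration unit is not stated.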

[1] = drug concentration (unit not stated): 0.01, genotype: DDX11 knockout
[2] = drug concentration (unit not stated): 0.01, genotype: control (DDX11 wild type)
[3] = drug concentration (unit not stated): 0.04, genotype: DDX11 knockout
[4] = drug concentration (unit not stated): 0.04, genotype: control (DDX11 wild type)
[5] = drug concentration (unit not stated): 0.12, genotype: DDX11 knockout
[6] = drug concentration (unit not stated): 0.12, genotype: control (DDX11 wild type)
[7] = drug concentration (unit not stated): 0.37, genotype: DDX11 knockout
[8] = drug concentration (unit not stated): 0.37, genotype: control (DDX11 wild type)
[9] = drug concentration (unit not stated): 1.11, genotype: DDX11 knockout
[10] = drug concentration (unit not stated): 1.11, genotype: control (DDX11 wild type)
[11] = drug concentration (unit not stated): 3.33, genotype: DDX11 knockout
[12] = drug concentration (unit not stated): 3.33, genotype: control (DDX11 wild type)
[13] = drug concentration (unit not stated): 10, genotype: DDX11 knockout
[14] = drug concentration (unit not stated): 10, genotype: control (DDX11 wild type)
[15] = drug concentration (unit not stated): 30, genotype: DDX11 knockout
[16] = drug concentration (unit not stated): 30, genotype: control (DDX11 wild type)

SMILES | cell viability [1] | cell viability [2] | cell viability [3] | cell viability [4] | cell viability [5] | cell viability [6] | cell viability [7] | cell viability [8] | cell viability [9] | cell viability [10] | cell viability [11] | cell viability [12] | cell viability [13] | cell viability [14] | cell viability [15] | cell viability [16]
CO[C@H]1C[C@@H]2CC[C@@H](C)[C@@](O)(O2)C(=O)C(=O)N2CCCC[C@H]2C(=O)O[C@H]([C@H](C)C[C@@H]2CC[C@@H](O)[C@H](OC)C2)CC(=O)[C@H](C)/C=C(\C)[C@@H](O)[C@@H](OC)C(=O)[C@H](C)C[C@H](C)/C=C/C=C/C=C/1C [Rapamycin (Sirolimus)] | 0.764 ± 0.11 | 0.916 ± 0.33 | 0.755 ± 0.13 | 0.883 ± 0.33 | 0.786 ± 0.18 | 0.887 ± 0.33 | 0.706 ± 0.11 | 0.903 ± 0.33 | 0.718 ± 0.11 | 0.878 ± 0.35 | 0.67 ± 0.12 | 0.84 ± 0.35 | – | – | – | –
CC[C@H](CO)Nc1nc(NCc2ccccc2)c2ncn(C(C)C)c2n1 [Seliciclib (Roscovitine)] | – | – | – | – | 0.992 ± 0.018 | 0.946 ± 0.036 | 1.008 ± 0.0031 | 0.98 ± 0.018 | 1.04 ± 0.021 | 1 ± 0.033 | 1 ± 0.012 | 0.994 ± 0.038 | 1.01 ± 0.051 | 1.028 ± 0.008 | 0.577 ± 0.26 | 0.893 ± 0.38
Cn1cnc2c(F)c(Nc3ccc(Br)cc3Cl)c(C(=O)NOCCO)cc21 [Selumetinib (AZD6244)] | – | – | 0.991 ± 0.022 | 0.985 ± 0.059 | 0.963 ± 0.029 | 0.957 ± 0.085 | 0.9 ± 0.078 | 0.95 ± 0.15 | 0.902 ± 0.082 | 0.955 ± 0.12 | 0.855 ± 0.067 | 0.935 ± 0.22 | 0.744 ± 0.13 | 0.913 ± 0.38 | – | –
Nc1nc2[nH]cnc2c(=S)[nH]1 [Thioguanine] | – | – | 1.03 ± 0.045 | 1.04 ± 0.04 | 0.992 ± 0.017 | 0.971 ± 0.044 | 0.94 ± 0.039 | 0.762 ± 0.065 | 0.731 ± 0.15 | 0.428 ± 0.15 | 0.536 ± 0.12 | 0.433 ± 0.21 | 0.239 ± 0.025 | 0.387 ± 0.2 | – | –
CC[C@@]1(O)C(=O)OCc2c1cc1n(c2=O)Cc2cc3c(CN(C)C)c(O)ccc3nc2-1 [Topotecan HCl] | 0.74 ± 0.27 | 0.86 ± 0.14 | 0.519 ± 0.38 | 0.709 ± 0.57 | 0.206 ± 0.19 | 0.228 ± 0.21 | 0.0639 ± 0.033 | 0.0738 ± 0.043 | 0.0268 ± 0.0046 | 0.0567 ± 0.046 | 0.0244 ± 0.0069 | 0.0265 ± 0.01 | – | – | – | –
Cc1cc(Nc2cc(N3CCN(C)CC3)nc(Sc3ccc(NC(=O)C4CC4)cc3)n2)n[nH]1 [Tozasertib (VX-680)] | – | – | – | – | 0.959 ± 0.016 | 0.978 ± 0.1 | 0.951 ± 0.025 | 1.1 ± 0.2 | 0.976 ± 0.087 | 1.03 ± 0.22 | 0.912 ± 0.048 | 1.02 ± 0.23 | 0.823 ± 0.04 | 0.975 ± 0.22 | 0.659 ± 0.067 | 0.764 ± 0.19
COc1cc2c(cc1O)CCN[C@]21CS[C@@H]2c3c(OC(C)=O)c(C)c4c(c3[C@H](COC1=O)N1[C@@H]2[C@H]2c3c(cc(C)c(OC)c3O)C[C@@H]([C@@H]1O)N2C)OCO4 [Trabectedin (Yondelis)] | 1.061 ± 0.0098 | 1.05 ± 0.0085 | 1.01 ± 0.044 | 1 ± 0.031 | 1 ± 0.034 | 1.02 ± 0.034 | 0.9874 ± 0.0059 | 1.02 ± 0.025 | 0.913 ± 0.14 | 1.034 ± 0.0075 | – | – | – | – | – | –
CC(=O)Nc1cccc(-n2c(=O)n(C3CC3)c(=O)c3c(Nc4ccc(I)cc4F)n(C)c(=O)c(C)c32)c1 [Trametinib] | – | – | 0.814 ± 0.081 | 0.908 ± 0.2 | 0.773 ± 0.058 | 0.914 ± 0.18 | 0.861 ± 0.12 | 0.976 ± 0.28 | 0.736 ± 0.17 | 0.952 ± 0.31 | 0.613 ± 0.23 | 0.968 ± 0.34 | 0.46 ± 0.03 | 0.706 ± 0.17 | – | –
CC[C@]1(O)C[C@@H]2CN(CCc3c([nH]c4ccccc34)[C@@](C(=O)OC)(c3cc4c(cc3OC)N(C)[C@H]3[C@@](O)(C(=O)OC)[C@H](OC(C)=O)[C@]5(CC)C=CCN6CC[C@]43[C@@H]65)C2)C1 [Vinblastine] | 0.751 ± 0.37 | 0.802 ± 0.21 | 0.538 ± 0.36 | 0.799 ± 0.44 | 0.374 ± 0.092 | 0.441 ± 0.2 | 0.392 ± 0.0058 | 0.31 ± 0.042 | 0.3923 ± 0.00082 | 0.355 ± 0.12 | 0.401 ± 0.042 | 0.359 ± 0.089 | – | – | – | –
CNC(=O)c1cccc(-c2ccc3c(N4CCOC[C@@H]4C)nc(N4CCOC[C@@H]4C)nc3n2)c1 [Vistusertib (AZD2014)] | – | – | 0.902 ± 0.082 | 0.938 ± 0.15 | 0.777 ± 0.13 | 0.973 ± 0.3 | 0.668 ± 0.16 | 0.917 ± 0.29 | 0.449 ± 0.081 | 0.637 ± 0.16 | 0.356 ± 0.03 | 0.533 ± 0.17 | 0.344 ± 0.048 | 0.436 ± 0.17 | – | –
O=C(CCCCCCC(=O)Nc1ccccc1)NO [Vorinostat (SAHA)] | 1.01 ± 0.075 | 1.03 ± 0.026 | 0.974 ± 0.013 | 0.9673 ± 0.0094 | 0.995 ± 0.052 | 0.971 ± 0.031 | 0.771 ± 0.18 | 0.825 ± 0.27 | 0.317 ± 0.41 | 0.44 ± 0.58 | – | – | – | – | – | –
COCC[n+]1c2c(n(Cc3cnccn3)c1C)C(=O)c1ccccc1C2=O [YM155 (Sepantronium bromide)] | 0.0145 ± 0.002 | 0.015 ± 0.0031 | 0.0143 ± 0.0008 | 0.0164 ± 0.0034 | 0.0146 ± 0.00021 | 0.0177 ± 0.0016 | 0.0135 ± 0.00019 | 0.0166 ± 0.0028 | 0.0136 ± 0.00081 | 0.0158 ± 0.0023 | – | – | – | – | – | –

From the supplement of paper PMC8092582
